Experimental data taken from US11161854B2, “Indazolyl-spiro[2.2]pentane-carbonitrile derivatives as LRRK2 inhibitors, pharmaceutical compositions, and uses thereof” (Merck Sharp & Dohme Corp., priority 2017, dated 2021).

The compounds below were run against GST-tagged truncated human mutant G2019S LRRK2 (Homo sapiens (Human), UniProt Q5S007, G2019S) (assay: LRRK2 G2019S Km ATP LanthaScreen Assay). Settings: 134 μM ATP (Km ATP); fluorescein-labeled LRRKtide substrate; mean IC50 values.
Format: biochemical
Method: The IC50 values reported herein were measured as follows.
Biological Assay: LRRK2 Km ATP LanthaScreen™ Assay
The data presented for the Km ATP LanthaScreen™ Assay represents mean IC50 values based on several test results and may have reasonable deviations depending on the specific conditions and reagents used. Assays were performed in the presence of 134 μM ATP (Km ATP). Upon completion, the assay was stopped and phosphorylated substrate detected with a terbium (Tb)-labeled anti-pERM antibody (cat. no. PV4898). The compound dose response was prepared by diluting a 10 mM stock of compound to a maximum concentration of […] in 100% dimethylsulfoxide followed by custom fold serial dilution in dimethylsulfoxide nine times. Twenty nanoliters of each dilution was spotted via a Labcyte Echo onto a 384-well black-sided plate (Corning 3575) followed by 15 μl of a 1.25 nM enzyme solution in 1× assay buffer (50 mM Tris pH 8.5, 10 mM MgCl2, 0.01% Brij-35, 1 mM EGTA, 2 mM dithiothreitol, 0.05 mM sodium orthovanadate). Following a 15-minute incubation at room temperature, the kinase reaction was started with the addition of 5 μl of 400 nM fluorescein-labeled LRRKtide peptide substrate and 134 μM ATP solution in 1× assay buffer. The reaction was allowed to progress at ambient temperature for 90 minutes. The reaction was then stopped by the addition of 20 μl of TR-FRET Dilution Buffer (Life Technologies, Carlsbad, Calif.) containing 2 nM Tb-labeled anti-phospho LRRKtide antibody and 10 mM EDTA (Life Technologies, Carlsbad, Calif.). After an incubation of 1 hour at room temperature, the plate was read on an EnVision multimode plate reader (Perkin Elmer, Waltham, Mass.) with an excitation wavelength of 337 nm (Laser) and a reading emission at both 520 and 495 nm. […] Abase uses a 4 parameter (4P) logistic fit based on the Levenberg-Marquardt algorithm.

Sequence of GST-tagged truncated human mutant G2019S LRRK2 (Q5S007 970-2527 G2019S): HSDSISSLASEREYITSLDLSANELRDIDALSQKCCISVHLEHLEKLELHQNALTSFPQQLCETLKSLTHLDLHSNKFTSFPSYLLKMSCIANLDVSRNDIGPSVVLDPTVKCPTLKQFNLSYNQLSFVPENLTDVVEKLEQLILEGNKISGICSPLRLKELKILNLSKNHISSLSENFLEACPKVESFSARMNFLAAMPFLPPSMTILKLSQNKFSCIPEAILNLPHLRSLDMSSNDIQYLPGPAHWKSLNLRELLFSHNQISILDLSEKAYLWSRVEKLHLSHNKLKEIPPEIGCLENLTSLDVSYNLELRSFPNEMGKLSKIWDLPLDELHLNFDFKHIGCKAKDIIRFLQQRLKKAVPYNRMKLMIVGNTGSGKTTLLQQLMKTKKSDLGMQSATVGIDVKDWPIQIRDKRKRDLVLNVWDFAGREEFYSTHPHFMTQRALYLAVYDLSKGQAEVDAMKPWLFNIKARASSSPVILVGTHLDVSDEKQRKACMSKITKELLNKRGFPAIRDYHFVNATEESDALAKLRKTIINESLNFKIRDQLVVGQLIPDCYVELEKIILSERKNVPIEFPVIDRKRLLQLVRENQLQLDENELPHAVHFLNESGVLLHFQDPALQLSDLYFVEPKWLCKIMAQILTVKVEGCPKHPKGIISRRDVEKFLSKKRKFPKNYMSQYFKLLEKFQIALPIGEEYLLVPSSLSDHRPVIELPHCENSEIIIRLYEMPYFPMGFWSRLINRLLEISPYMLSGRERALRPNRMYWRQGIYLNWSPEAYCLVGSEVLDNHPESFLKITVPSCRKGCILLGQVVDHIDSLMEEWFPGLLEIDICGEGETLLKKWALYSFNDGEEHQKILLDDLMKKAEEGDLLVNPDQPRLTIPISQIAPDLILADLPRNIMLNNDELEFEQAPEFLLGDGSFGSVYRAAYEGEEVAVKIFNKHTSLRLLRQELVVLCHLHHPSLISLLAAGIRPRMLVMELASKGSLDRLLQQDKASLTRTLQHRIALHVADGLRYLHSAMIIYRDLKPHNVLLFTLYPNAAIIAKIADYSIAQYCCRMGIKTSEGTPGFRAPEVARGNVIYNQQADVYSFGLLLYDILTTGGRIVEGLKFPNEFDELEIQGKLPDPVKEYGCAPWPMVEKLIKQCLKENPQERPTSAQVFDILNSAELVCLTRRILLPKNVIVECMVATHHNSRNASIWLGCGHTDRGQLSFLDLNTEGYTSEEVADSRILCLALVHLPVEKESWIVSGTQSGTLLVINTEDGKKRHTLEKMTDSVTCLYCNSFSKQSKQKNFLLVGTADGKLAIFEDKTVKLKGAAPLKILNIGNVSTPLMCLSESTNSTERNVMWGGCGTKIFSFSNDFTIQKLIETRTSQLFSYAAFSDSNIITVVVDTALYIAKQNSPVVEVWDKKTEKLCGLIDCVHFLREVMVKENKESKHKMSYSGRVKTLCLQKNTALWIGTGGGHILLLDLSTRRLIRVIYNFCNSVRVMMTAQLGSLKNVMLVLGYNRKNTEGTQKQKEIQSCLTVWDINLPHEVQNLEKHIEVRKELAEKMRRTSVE

Q: For `CC(C)(O)[C@@H]1CCN(c2cc(-n3ncc4ccc([C@]5(C#N)CC56CC6)cc43)ncn2)C1` [Example 1.4-2, (S)-1-(1-(6-((R)-3-(2-hydroxypropan-2-yl)pyrrolidin-1-yl)pyrimidin-4-yl)-1H-indazol-6-yl)spiro[2.2]pentane-1-carbonitrile], which IC50 is on record?
A: Its IC50 is 0.9 nM.

Q: Which IC50 does the source give for `N#C[C@@]1(c2ccc3cnn(-c4cc(N5CC(O)C6(CC6)C5)ncn4)c3c2)CC12CC2` (single isomer, unassigned) [Example 3.11-2] here?
A: Its IC50 is 1.4 nM.

Q: Which IC50 does the source give for `N#CC1(c2ccc3cnn(-c4cc(N5CC6(CCOC6)C5)ncn4)c3c2)CC12CC2` (stereo not drawn) [Example 1.5] here?
A: Its IC50 is 0.9 nM.

Q: With `C[C@H]1CN(c2cc(-n3ncc4ccc(C5(C#N)CC56CC6)cc43)ncn2)CCN1C1COC1` (single isomer, unassigned) [Example 3.1, (R or S)-1-(1-(6-((S)-3-methyl-4-(oxetan-3-yl)piperazin-1-yl)pyrimidin-4-yl)-1H-indazol-6-yl)spiro[2.2]pentane-1-carbonitrile] as the compound, how does the IC50 read?
A: Its IC50 is 0.6 nM.

Q: `CC(C)(O)C1CN(c2cc(-n3ncc4ccc([C@]5(C#N)CC56CC6)cc43)ncn2)CCO1` (single isomer, unassigned) [Example 4.3-1, 1-(1-(6-(2-(2-hydroxypropan-2-yl)morpholino)pyrimidin-4-yl)-1H-indazol-6-yl)spiro[2.2]pentane-1-carbonitrile] was tested. Which IC50 did it give?
A: Its IC50 is 1.8 nM.

Q: Which IC50 does the source give for `Cc1nc(N2CC3(CN(CC(F)(F)F)C3)C2)cc(-n2ncc3cnc(C4(C#N)CC45CC5)cc32)n1` (single isomer, unassigned) [Example 12.1, (S or R)-1-(1-(2-methyl-6-(6-(2,2,2-trifluoroethyl)-2,6-diazaspiro[3.3]heptan-2-yl)pyrimidin-4-yl)-1H-pyrazolo[4,3-c]pyridin-6-yl)spiro[2.2]pentane-1-carbonitrile] here?
A: Its IC50 is 2.1 nM.

Q: How did the IC50 turn out when `COC1(C(C)(C)O)CCN(c2cc(-n3ncc4ccc([C@]5(C#N)CC56CC6)cc43)ncn2)C1` (single isomer, unassigned) [Example 3.10-2] was run?
A: The IC50 was 2.1 nM.

Q: With `Cc1nc(N2CCN3CCOC[C@@H]3C2)cc(-n2ncc3ccc([C@]4(C#N)CC45CC5)cc32)n1` [Example 4.17] as the compound, how does the IC50 read?
A: Its IC50 is 0.6 nM.

Q: For `C[C@@H]1CN(c2cc(-n3ncc4ccc([C@]5(C#N)CC56CC6)cc43)ncn2)CCN1C1CCOC1` (single isomer, unassigned) [Example 3.7-2], which IC50 is on record?
A: Its IC50 is 1.7 nM.

Q: How did the IC50 turn out when `N#C[C@@]1(c2ccc3cnn(-c4cc(N5CCOC(CO)C5)ncn4)c3c2)CC12CC2` (stereo in doubt) [Example 4.9-1, 1-(1-(6-(2-(hydroxymethyl)morpholino)pyrimidin-4-yl)-1H-indazol-6-yl)spiro[2.2]pentane-1-carbonitrile] was run?
A: The IC50 was 0.6 nM.

Q: How did the IC50 turn out when `C[C@H]1CN(c2cc(-n3ncc4ccc([C@]5(C#N)CC56CC6)cc43)cc(F)n2)CCN1C1COC1` [Example 6.4] was run?
A: Its IC50 is 6.8 nM.

Q: With `N#C[C@]1(c2ccc3cnn(-c4cc(N5CC(O)C6(CC6)C5)ncn4)c3c2)CC12CC2` (single isomer, unassigned) [Example 3.11-3] as the compound, how does the IC50 read?
A: The IC50 was 6.3 nM.

Q: How did the IC50 turn out when `C[C@@H]1CN(c2cc(-n3ncc4cnc(C5(C#N)CC56CC6)cc43)ncn2)C[C@H](C)[C@]1(C)O` (single isomer, unassigned) [Example 5.4-2] was run?
A: The IC50 was 2.6 nM.

Q: Which IC50 does the source give for `CC(C)(O)[C@@H]1CCN(c2cc(-n3ncc4ccc(C5(C#N)CC56CC6)cc43)cnn2)C1` (single isomer, unassigned) [Example 10.4-1] here?
A: The IC50 was 18.7 nM.

Q: Which IC50 does the source give for `C[C@@H]1CN(c2cc(-n3ncc4ccc([C@]5(C#N)CC56CC6)cc43)ncn2)CCN1C1CCOC1` (single isomer, unassigned) [Example 3.7-4] here?
A: Its IC50 is 2 nM.

Q: For `CC(C)(O)C1CN(c2cc(-n3ncc4ccc([C@]5(C#N)CC56CC6)cc43)ncn2)C1` [Example 4.4], which IC50 is on record?
A: Its IC50 is 0.6 nM.

Q: How did the IC50 turn out when `CNc1nc(N2CC[C@H](C(F)F)C2)cc(-n2ncc3ccc(C4(C#N)CC45CC5)cc32)n1` (single isomer, unassigned) [Example 2.8-2] was run?
A: Its IC50 is 1.1 nM.

Q: Which IC50 does the source give for `CC(C)(O)[C@@H]1CCN(c2cc(-n3ncc4cnc(C5(C#N)CC56CC6)cc43)ccn2)C1` (single isomer, unassigned) [Example 6.6-1] here?
A: Its IC50 is 28.5 nM.
